How the values were obtained:
[1] = system: MDA-MB-231, human breast cancer cells; test: Proliferation assay MDA-MB-231 (crystal violet, 4 days); type: cell-based; conditions: Homo sapiens, MDA-MB-231, 96 h, MDA-MB-231 cells, median, read-out: Prolif-MDA MB-231, IC50-[mol/l] (median)
Procedure, shortened: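 Cells seeded at 4,000/well in medium with 10% FCS; after 24 h, compounds added at 0.01-10 µmol/L (0.1% DMSO) for 4 days. Glutaraldehyde-fixed, crystal violet-stained, absorbance at 595 nm normalized to zero-point plate (0%) and untreated cells (100%); IC50 by 4-parameter fit.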

[2] = system: BRCA1 mRNA expression in MDA-MB-231 cells; test: qRT-PCR assay: BRCA1 mRNA expression in MDA-MB-231; type: cell-based, human; conditions: Homo sapiens, MDA-MB-231, Inhibition of BRCA1 mRNA expression in MDA-MB-231 cells; median; read-out: RTqPCR-MDA-MB-231, IC50, BRCA1 (median)
Procedure, shortened: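 Cells were seeded at 200,000 cells/well, left 24 h, then exposed continuously to test substances for 24 h. Total RNA (600 ng) was reverse-transcribed to cDNA and amplified by qPCR, and transcript levels were normalised to GAPDH housekeeping expression.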

CDK9/CycT1 = target: T1, CDK9/CycT1 (Homo sapiens, UniProt P50750); test: CDK9/CycT1 high ATP kinase assay (TR-FRET, 2 mM ATP); type: biochemical; conditions: 2 mM ATP (high ATP); median; read-out: CDK9/CyclinT1, 2 mM ATP (high ATP), IC50 (median)
T1 construct: Recombinant full-length His-tagged human CDK9 and CycT1; purchased Life Technologies PV4131; host or cells: insect cells
Procedure, shortened: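 Full-length His-tagged human CDK9/CycT1 (insect cell, ~0.5 μg/mL) preincubated 15 min at 22 °C with compound in Tris pH 8.0, MgCl2, DTT buffer before reaction with biotinylated peptide substrate at high ATP (2 mM).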

T1 sequence (P50750 whole entry): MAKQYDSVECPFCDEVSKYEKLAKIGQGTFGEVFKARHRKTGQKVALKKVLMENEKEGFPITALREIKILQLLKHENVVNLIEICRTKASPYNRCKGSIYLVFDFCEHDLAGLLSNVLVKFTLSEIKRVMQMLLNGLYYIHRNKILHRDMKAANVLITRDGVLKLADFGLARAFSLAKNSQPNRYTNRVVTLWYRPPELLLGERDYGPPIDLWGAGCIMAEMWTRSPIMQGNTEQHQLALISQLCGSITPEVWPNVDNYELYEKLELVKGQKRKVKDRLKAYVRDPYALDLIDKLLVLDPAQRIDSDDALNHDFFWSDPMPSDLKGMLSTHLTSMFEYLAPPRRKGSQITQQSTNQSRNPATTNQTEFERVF
T1 sequence (O60563 whole entry partner): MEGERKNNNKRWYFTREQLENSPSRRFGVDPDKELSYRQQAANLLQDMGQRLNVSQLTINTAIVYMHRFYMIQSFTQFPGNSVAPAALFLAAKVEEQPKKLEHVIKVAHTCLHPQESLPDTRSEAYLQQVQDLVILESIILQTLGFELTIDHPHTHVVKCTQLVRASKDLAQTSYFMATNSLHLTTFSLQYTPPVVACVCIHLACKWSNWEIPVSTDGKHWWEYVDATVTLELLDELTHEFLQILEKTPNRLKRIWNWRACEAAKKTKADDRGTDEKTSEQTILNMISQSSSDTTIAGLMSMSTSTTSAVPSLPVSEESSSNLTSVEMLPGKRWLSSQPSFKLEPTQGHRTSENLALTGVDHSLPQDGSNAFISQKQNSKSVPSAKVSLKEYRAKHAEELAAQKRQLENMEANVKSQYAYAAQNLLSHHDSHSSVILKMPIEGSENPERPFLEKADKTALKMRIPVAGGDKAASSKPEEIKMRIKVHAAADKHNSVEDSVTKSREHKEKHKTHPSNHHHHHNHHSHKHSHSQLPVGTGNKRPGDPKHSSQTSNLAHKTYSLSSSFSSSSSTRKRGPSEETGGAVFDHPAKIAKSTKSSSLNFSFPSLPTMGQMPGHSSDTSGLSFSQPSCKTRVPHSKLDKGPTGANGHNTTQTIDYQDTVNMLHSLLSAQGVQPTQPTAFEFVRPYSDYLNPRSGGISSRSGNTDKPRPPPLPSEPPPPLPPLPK

Question: `CN1CCN(c2nc(NCc3nc4c(F)c(Cl)ccc4[nH]3)n3ncc(Br)c3n2)CC1` [Example 373, 8-bromo-N-[(5-chloro-4-fluoro-1H-benzimidazol-2-yl)methyl]-2-(4-methylpiperazin-1-yl)pyrazolo[1,5-a][1,3,5]triazin-4-amine] was tested. Which IC50 [1] did it give?
Answer: The IC50 was 3.33 nM.

Question: What about the IC50 [2] of the same compound?
Answer: Its IC50 is 1.27 nM.

Question: What about the IC50 (CDK9/CycT1) of the same compound?
Answer: Its IC50 is 14400 nM.

Question: How did the IC50 [1] turn out when `FC(F)(F)c1ccc2[nH]c(CNc3nc(N4CCOCC4)nc4c(Br)cnn34)nc2c1` [Example 339, 8-bromo-2-(morpholin-4-yl)-N-{[5-(trifluoromethyl)-1H-benzimidazol-2-yl]methyl}pyrazolo[1,5-a][1,3,5]triazin-4-amine] was run?
Answer: Its IC50 is 7.45 nM.

Question: What about the IC50 [2] of the same compound?
Answer: Its IC50 is 7.85 nM.

Question: What about the IC50 (CDK9/CycT1) of the same compound?
Answer: The IC50 was 13800 nM.

Question: Which IC50 [1] does the source give for `CN1C2CCC1CN(c1nc(NCc3nc4c(F)c(F)ccc4[nH]3)n3ncc(C(F)(F)F)c3n1)C2` [Example 356, N-[(4,5-difluoro-1H-benzimidazol-2-yl)methyl]-2-(8-methyl-3,8-diazabicyclo[3.2.1]octan-3-yl)-8-(trifluoromethyl)pyrazolo[1,5-a][1,3,5]triazin-4-amine] here?
Answer: Its IC50 is 5.25 nM.

Question: What about the IC50 [2] of the same compound?
Answer: Its IC50 is 5.05 nM.

Question: And the IC50 (CDK9/CycT1)?
Answer: Its IC50 is over 20000 nM.

Question: With `C[C@H]1CN(C)CCN1c1nc(NCc2nc3c(F)cccc3[nH]2)n2ncc(C(F)(F)F)c2n1` [Example 388, 2-[(2S)-2,4-dimethylpiperazin-1-yl]-N-[(4-fluoro-1H-benzimidazol-2-yl)methyl]-8-(trifluoromethyl)pyrazolo[1,5-a][1,3,5]triazin-4-amine] as the compound, how does the IC50 [1] read?
Answer: The IC50 was 30.2 nM.

Question: What about the IC50 [2] of the same compound?
Answer: The IC50 was 40 nM.

Question: What about the IC50 (CDK9/CycT1) of the same compound?
Answer: Its IC50 is over 20000 nM.

Question: Which IC50 [1] does the source give for `CN1CCN(c2nc(NCc3nc4c(F)c(Cl)ccc4[nH]3)n3ncc(C4CC4)c3n2)CC1` [Example 371, N-[(5-chloro-4-fluoro-1H-benzimidazol-2-yl)methyl]-8-cyclopropyl-2-(4-methylpiperazin-1-yl)pyrazolo[1,5-a][1,3,5]triazin-4-amine] here?
Answer: Its IC50 is 7.8 nM.

Question: What about the IC50 [2] of the same compound?
Answer: Its IC50 is 7.36 nM.

Question: And the IC50 (CDK9/CycT1)?
Answer: The IC50 was over 20000 nM.

Question: `Cc1cc2nc(CNc3nc(N4CCOCC4)nc4c(Br)cnn34)[nH]c2cc1C` [Example 340, 8-bromo-N-[(5,6-dimethyl-1H-benzimidazol-2-yl)methyl]-2-(morpholin-4-yl)pyrazolo[1,5-a][1,3,5]triazin-4-amine] was tested. Which IC50 [1] did it give?
Answer: The IC50 was 4.36 nM.

Question: And the IC50 [2]?
Answer: Its IC50 is 8.16 nM.

Question: What about the IC50 (CDK9/CycT1) of the same compound?
Answer: The IC50 was 12600 nM.

Question: `CN(CC(C)(C)O)c1nc(NCc2nc3c(F)c(Cl)ccc3[nH]2)n2ncc(C3CC3)c2n1` [Example 387, 1-[(4-{[(5-chloro-4-fluoro-1H-benzimidazol-2-yl)methyl]amino}-8-cyclopropylpyrazolo[1,5-a][1,3,5]triazin-2-yl)(methyl)amino]-2-methylpropan-2-ol] was tested. Which IC50 [1] did it give?
Answer: The IC50 was 4.57 nM.

Question: And the IC50 [2]?
Answer: The IC50 was 5.56 nM.

Question: And the IC50 (CDK9/CycT1)?
Answer: Its IC50 is 5930 nM.

Source: patent US20230117034A1, “PYRAZOLOTRIAZINES” (Bayer Aktiengesellschaft, priority 2019, published 2023)
